The nature of series [1]: Stability in mouse plasma. To be noted: after five hours. Format: in vitro ADME. As to the method:
(§1) The stability of erastin in mouse and human liver microsomes and in mouse and human plasma was assessed. In both human and mouse liver microsomes, after 1 hr, ˜30% of erastin was converted to its primary metabolite (the O-de-ethylated product). In both human and mouse plasma, only ˜10% of erastin was lost after five hours. Thus, erastin has sufficient metabolic and plasma stability to be tested in vivo in mice.

Series [2] concerns BJ-TERT/LT/ST/RAS^V12 cells. In words: Oxidative species detection (H2DCF-DA, flow cytometry). Format: cell-based, human. To be noted: 4.6 μM erastin. As to the method:
BJ-TERT/LT/ST/RAS^V12 cells (shown in histogram plots and in line graph, dark line) and BJ-TERT cells (shown in line graph only, light line) were treated with 4.6-μM erastin and the level of intracellular oxidative species determined using 2′7′-dichlorodihydrofluorescein diacetate (H2DCF-DA, Molecular Probes) and flow cytometry. Cells were seeded at 3×10^5 cells per dish in 60-mm dishes and allowed to grow overnight. Cells were incubated with 10 μM of H2DCF-DA for 10 minutes, harvested by trypsinization, washed twice with cold PBS, re-suspended in 100 μl of PBS and incubated with 5 μl of 50-μg/ml propidium iodide for 10 minutes. 400 μl of PBS was added and the solution analyzed by flow cytometry (FACSCalibur-Becton-Dickinson).
2′7′-dichlorodihydrofluorescein diacetate (H2DCF-DA, Molecular Probes) was used to measure oxidative species by flow cytometry. Non-fluorescent H2DCF-DA is cleaved by endogenous esterases and then is oxidized to generate fluorescent dichlorofluorescein (DCF). BJ-TERT/LT/ST/RAS^V12 and BJ-TERT cells were seeded at 3×10^5 cells per dish in 60-mm dishes and allowed to grow overnight. Cells were treated with 4.6 μM erastin for 2, 4, 6, 8, 10 and 12 h. […] 400 μl of PBS was added and the solution analyzed by flow cytometry (FACSCalibur-Becton-Dickinson). FL1-H indicates DCF fluorescence units detected.
Background: A flow cytometer gives signals particle by particle.

A short description of series [3]: Stability in human liver microsomes. Format: in vitro ADME. As to conditions: after 1 hr. The procedure: as §1
(Liver microsomes are a subcellular fraction often used to study metabolism.)

Series [4] concerns taxol resistant CCRF-CEM derivative cells. Kind of series: Cell death in taxol/vinblastine resistance panel. To be noted: Homo sapiens. Format: cell-based. As to the method:
(§2) In certain embodiments, the sensitivity to erastin, can be tested in cell lines that are resistant to taxol and vinblastine. The sensitivity of CCRF-CEM parental, and taxol and vinblastine resistant derivative cells to erastin was tested. […] Erastin analogues can be tested to ensure their effectiveness in inducing cell death in tumor cell line which are resistant to taxol or vinblastin, or other ant-tumor agents.

For series [5], the system named is vinblastine resistant CCRF-CEM derivative cells. Kind of series: Cell death in taxol/vinblastine resistance panel. As to conditions: Homo sapiens. Format: cell-based. The procedure:
as §2

In another series the test system is CCRF-CEM parental cells. Kind of series: Cell death in taxol/vinblastine resistance panel. In kind it is cell-based. To be noted: Homo sapiens. The procedure: as §2
The test system of series [6] is BJ-TERT/LT/ST/RAS^V12 cells. In words: Alamar Blue viability assay. In kind it is cell-based, human. As to the method:
(a) Calu-1 lung carcinoma cells harboring oncogenic KRAS were infected with lentivirus containing shRNAs targeting KRAS or GFP. Sequences of shRNAs are indicated by starting nucleotide (nt) in the KRAS mRNA coding sequence. Cells were treated with erastin and viability measured by Trypan Blue exclusion. (b) Knockdown of KRAS was confirmed by western blot. (c,d) A673 cells harboring oncogenic BRAF were infected with lentiviral shRNAs targeting BRAF exon 5 (c) or the 5′ UTR (d), luciferase (LUC) (c) or GFP (d). Cells were treated with erastin and viability measured using Alamar Blue (c) and Trypan Blue (d). (e) Knockdown of BRAF was confirmed by western blot. […] BJ-TERT/LT/ST/RAS^V12 cells were treated with erastin alone or in with a MEK inhibitor U0126 (20 μM), MEK inhibitor I (10 μM) or MEK 1/2 inhibitor (50 μM). After 48 h, viability was determined using Trypan Blue. (g) Structures of certain erastin and related analogs. (h) and (i) Dose-response curves were measured for erastin A3 and erastin B2 in BJ-TERT/LT/ST/RAS^V12 cells (black squares) or BJ-TERT cells (grey circles). (j) Calu-1 lung carcinoma cells harboring oncogenic KRAS were infected with lentivirus containing shRNAs targeting KRAS or GFP. Sequences of shRNAs are indicated by starting nucleotide (nt) in the KRAS mRNA coding sequence. Cells were treated with erastin and viability (y-axis) measured by Trypan Blue exclusion. Cells were treated with erastin for 24 hours, and percent inhibition of viability (y-axis) measured using Alamar Blue (k) and Trypan Blue (l). (m) Structures of erastin and related analogs. (n) Dose-response curves were measured for erastin A6, erastin B2, erastin A8 and erastin A9 in BJ-TERT/LT/ST/RAS^V12 cells (squares) or BJ-TERT cells (circles) using Alamar Blue.
Alamar Blue metabolism: 10% Alamar Blue was added to assay plates, which were then incubated for an additional 16 hours. Red fluorescence, resulting from reduction of Alamar Blue, was detected on a Victor3 platereader (ex: 530, em: 590).
Table 2. Activity of RAS-selective lethal compound erastin in tumor cell lines. IC50 values (ng/mL) are shown using the Alamar Blue viability assay. BJ engineered tumor cells express TERT, LT, ST, and oncogenic RAS. Isogenic RAS^V12 lacking cells are identical but lack HRAS^V12. BJ-DRD cells are derived from BJ cells and contain TERT, oncogenic RAS, a truncated from of p53 (p53DD) that disrupts the tetramerization of endogenous p53, a CDK4(R24C) mutant resistant to inhibition by p16INK4A and p151NK4B (the major negative regulators of CDK4) and cyclin D1. These latter protein substitute for LT. HCT-116, A549, Calu-1, and MIA PaCa-2 are tumor cells derived from cancers (colon, lung, lung and pancreatic, respectively) known to have activating mutations in RAS.
A general note: The colour change of resazurin is a common sign of viable cells or microbes.

Series [7] relates to BJ-TERT/LT/ST/RAS^V12 cells. Kind of series: Cell death, viable cells counted using a hemacytometer. In kind it is cell-based, human. As to conditions: 13 μM erastin A1, 23 μM antimycin, 126 μM 2-methoxyestradiol or the combinations.

For orientation: IC50 means the concentration that inhibits the measured activity by half. Turning to `CCOc1ccccc1-n1c(C(C)N2CCN(C(=O)COc3ccc(Cl)cc3)CC2)nc2ccccc2c1=O` (stereo not drawn) [erastin, 2-(1-{4-[2-(4-Chloro-phenoxy)-acetyl]-piperazin-1-yl}-ethyl)-3-(2-ethoxy-phenyl)-3H-quinazolin-4-one], in series [1], the compound lost is listed as about 10%. The “Formation of oxidative species” value in series [2] is listed as “oxidizing species were detected”. Also, in series [3], the “converted to primary metabolite (O-de-ethylated product)” value is reported as about 30%. For the same compound, the IC50 in series [4] was found to be 7 µM; in series [5] it was 8 µM; in the series with CCRF-CEM parental cells, 11 µM. Also, in series [6] (HRAS^V12-expressing versus HRAS^V12-deficient cells), the RAS-selective lethality entry is given as “at least 16 fold”. In addition, the RAS selectivity in series [6] (IC50 in BJ-TERT/LT/ST versus BJ-TERT/LT/ST/RAS^V12) was over 16. For the same compound, the “Cell death (%)” value in series [7] was 100%.

The values above are taken from US20080299076A1, “Compunds and compositions that cause non-apoptotic cell death and uses thereof” (priority 2006, published 2008).
